Results: article PMC6478823, “A suite of phenotypic assays to ensure pipeline diversity when prioritizing drug-like Cryptosporidium growth inhibitors” (Nature Communications, 2019)

Legend:
C. parvum = type: cell-based, Cryptosporidium parvum; conditions: compound at EC90; for Invasion Assay: Mean % Inhibition (parasites), Average: average of replicates; for Invasion Assay: Mean % Inhibition (parasites), Replicate 1a: single biological replicate 1; for Invasion Assay: Mean % Inhibition (parasites), Replicate 2a: single biological replicate 2; for Sporozoite invasion: yes/no grouping by phenotypic assay result
Method: The first step in infection is host cell invasion, which involves a complex process encompassing oocyst excystation, parasite motility, adhesion, and parasitophorous vacuole formation (Fig. 2a). Our strategy to assay for compounds affecting invasion was simply to expose C. parvum to compounds immediately after triggering excystation and throughout the invasion process, and then enumerate the parasite vacuoles after 3 h, prior to allowing the parasites to replicate (summarized in Fig. 2b).
Fig. 2 Invasion Assay. a Overview of life cycle stage investigated during the invasion assay. Representative TEM images of a C. parvum oocyst and HCT-8 cell shortly after infection (Scale bar = 500 nm). b Schematic of experimental design. […] Each point represents the mean and SD of at least two biological replicates with four technical replicates per experiment.
C. parvum invasion inhibition was measured by modifying the 48 h growth inhibition assay described above. […] In parallel, Iowa strain oocysts were excysted. […] Assay plates were incubated at 37 °C and 5% CO2 for 3 h.

[1] = test system: C. parvum DMC1 expression; assay: Sexual differentiation assay (DMC1 expression); type: cell-based, Cryptosporidium parvum; conditions: compound at asexual EC90, 48-72 h; for Asexual to sexual differentiation: Mean % DMC1 inhibition (normalized to host nuclei), Average: average of replicates; for Asexual to sexual differentiation: Mean % DMC1 inhibition (normalized to host nuclei), Replicate 1a: single replicate 1; for Asexual to sexual differentiation: Mean % DMC1 inhibition (normalized to host nuclei), Replicate 2a: single replicate 2; for Asexual to sexual differentiation: Mean % DMC1 inhibition (normalized to host nuclei), Replicate 3a: single replicate 3
Text: We utilized DMC1 as a marker of C. parvum sexual development, and used the anti-DMC1 monoclonal antibody to develop a moderate-throughput high-content microscopy assay for characterizing anticryptosporidial compounds (Fig. 6a). […] Therefore, in order to enable numerical comparison of the ability of compounds to block sexual development with moderate throughput, we adopted a strategy of reporting the percent inhibition of DMC1 expression by the previously determined EC90 of each compound in the standard asexual development assay (Fig. 6c and Supplementary Table 2).
Fig. 6 Assay to measure asexual-to-sexual-stage conversion. a Schematic of the experimental approach. […] For b and c the mean and SD combined from at least two biological replicates with four technical replicates per experiment are shown. […] At given time points post-infection, infected cells were washed 3 times with PBS containing 111 mM of D-galactose, fixed for 15 min at room temperature with 4% paraformaldehyde in PBS, and permeabilized with 0.25% triton X-100 in PBS for 10 min at 37 °C. Cells were then washed 3 times with PBS and blocked at least overnight at 4 °C with 1% BSA in PBS (blocking buffer). Cells were stained with monoclonal antibody (1H10G7), either neat culture supernatant or 12.8 µg/mL of purified IgG in blocking buffer for 1 h at 37 °C, followed by 2 washes with PBS. Cells were then co-stained with a 1:500 dilution (4 µg/mL) of Alexa Fluor 568 goat anti-mouse IgG (Invitrogen, catalog# A-11004) and 1.33 µg/mL fluorescein-labeled Vicia villosa lectin (Vector Laboratories, catalog# FL-1231) diluted in blocking buffer for 1 h at 37 °C. Stains were then removed and 0.09 mM Hoechst 33258 (AnaSpec, catalog# AS-83219) also diluted in blocking buffer was added for another 15 min at 37 °C, followed by 2 PBS washes and imaging on a Nikon Eclipse Ti2000 epifluorescence microscope run with NIS-Elements Advanced Research software (Nikon, USA) and equipped with an EXi blue fluorescent microscopy camera (QImaging, Canada). For enumerating parasites, tiled 2 × 2 images with 15% overlapping edges were taken using a 40 × dry objective (0.7 NA), and for finer details, Z stack images were acquired using a 60 × oil objective (1.4 NA). Lectin positive cells in focus were first counted, followed by DMC1.
For compound dose-response studies, the same assay was performed in 384-well plates and imaged using a 20 × dry objective (NA = 0.45). Tiled 4 × 4 to 6 × 6 images were taken. Images were analyzed using ImageJ software and the custom macro provided in Supplementary Method 2.

Row | Compound | Invasion Assay: Mean % Inhibition (parasites), Average (C. parvum) | Invasion Assay: Mean % Inhibition (parasites), Replicate 1a (C. parvum) | Invasion Assay: Mean % Inhibition (parasites), Replicate 2a (C. parvum) | Asexual to sexual differentiation: Mean % DMC1 inhibition (normalized to host nuclei), Average [1] | Asexual to sexual differentiation: Mean % DMC1 inhibition (normalized to host nuclei), Replicate 1a [1] | Asexual to sexual differentiation: Mean % DMC1 inhibition (normalized to host nuclei), Replicate 2a [1] | Asexual to sexual differentiation: Mean % DMC1 inhibition (normalized to host nuclei), Replicate 3a [1] | Sporozoite invasion (C. parvum) | Invasion Assay: Mean % Inhibition (parasites), Replicate 3a (C. parvum; single biological replicate 3) | Asexual to sexual differentiation: Mean % DMC1 inhibition (normalized to host nuclei), Replicate 4a ([1]; single replicate 4)
1 | O=C(CC1NCCCC1O)Cn1cnc2cc(Br)c(Cl)cc2c1=O (centres unmarked) [Halofuginone] | 6.92% | 11% | 2.47% | 68.25% | 51.29% | 73.88% | 79.59% |  |  | 
2 | [H]/N=C(/NCCCCC)N/N=C/c1c[nH]c2ccc(OC)cc12 [Tegaserod] | 13.93% | 26% | 2% | 12.05% | 41.94% | -17.83% |  | no |  | 
3 | c1ccc(CNc2nc(NCc3ccccc3)c3ccccc3n2)cc1 [B-23] | 83.80% | 84% | 83% | -6.40% | -17.01% | 2.19% | -4.38% | yes |  | 
4 | C[C@H]1CCC[C@H](C[C@H]2Cc3cc(O)cc(O)c3C(=O)O2)O1 [Cladosporin] | -6.64% | 5.41% | -19% | 94.16% | 91.92% | 96.40% |  |  |  | 
5 | CCC(C)n1ncn(-c2ccc(N3CCN(c4ccc(OCC5COC(Cn6cncn6)(c6ccc(Cl)cc6Cl)O5)cc4)CC3)cc2)c1=O (centres unmarked) [Itraconazole] | -29.72% | -31% | -28% | 63.93% | 87.85% | 40.00% |  |  |  | 
6 | CC(=O)O[C@@]12CO[C@@H]1C[C@H](O)[C@@]1(C)C(=O)[C@H](O)C3=C(C)[C@@H](OC(=O)[C@H](O)[C@@H](NC(=O)OC(C)(C)C)c4ccccc4)C[C@@](O)([C@@H](OC(=O)c4ccccc4)[C@H]21)C3(C)C [Docetaxel] | -8.63% | -1.34% | -16% | 37.07% | 34.13% | 40.00% |  |  |  | 
7 | CCOc1ccc2cc(-c3nn(CC4CCN(C)CC4)c4ncnc(N)c34)ccc2n1 [BKI-1369] | -7.94% | -5% | -11% | 41.93% | -4.30% | 59.32% | 70.76% |  |  | 
8 | O=C(Nc1ccc(Cl)c(Cl)c1)N1CCN(c2ccc3nncn3n2)CC1 [D-28] | -13.23% | -5% | -22% | 81.40% | 86.90% | 86.80% | 70.51% |  |  | 
9 | O=C(Nc1nc(-c2ccccn2)cs1)c1ccccc1Br [MMV665909] | -12.01% | -8.54% | -15% | 53.05% | 56.13% | 49.96% |  |  |  | 
10 | COc1ccc(NC(=O)N2CCCCN3C(CN(C)C)C(c4ccc(C#Cc5ccccc5)cc4)C3C2)cc1 (centres unmarked) [BRD7929] | 0.40% | -20% | 20% | 63.11% | 38.81% | 78.93% | 84.43% |  | 1.85% | 50.27%
11 | O=C(NC(c1ccccc1)c1ccc2cccnc2c1O)c1ccccc1 (centres unmarked) [A-5] | -13.46% | -13% | -14% | 65.35% | 63.04% | 67.67% |  | no |  | 
12 | COc1ccc(Nc2nc(NCc3ccccc3Cl)c3ccccc3n2)cc1Cl [B-13] | 82.51% | 92% | 73% | 11.26% | 30.33% | -7.82% |  | yes |  | 
